Measurements published in US20060251638A1, “Cytoprotection through the use of hif hydroxylase inhibitors” (priority 2003, published 2006).

Legend:
H9c2 rat cardiomyocytes = assay: Intracellular ATP levels in H9c2 cardiomyocytes after oxygen and glucose deprivation (glucose-free DMEM, 2 mM KCN); type: cell-based; details: H9c2, 20 μM pretreatment 24 hours, glucose-free DMEM and 2 mM KCN for 30 minutes; vehicle control 415
Method: In similar experiments, H9c2 rat cardiomyocytes were pretreated with either vehicle control (0.5% DMSO) or 20 μM of Compound A, Compound B, Compound C, Compound D, Compound E, Compound F, Compound G, or compound H. After 24 hours, cells were washed with serum-free DMEM and subjected to oxygen and glucose deprivation by incubating the cells in glucose-free DMEM and 2 mM KCN for 30 minutes. Intracellular ATP levels were then determined.

[1] = tested on: gene encoding adrenomedullin; assay: Adrenomedullin gene expression in Hep3B cells (microarray); type: cell-based, human; details: 25 μM compound, 6 hrs, average of two determinations
Method: Hep3B cells (ATCC No. HB-8064) were grown in DMEM containing 8% fetal bovine serum. Hep3B cells were seeded into 6-well culture dishes at ˜500,000 cells per well. After 8 hours, the media was changed to DMEM containing 0.5% fetal bovine serum and the cells were incubated for an additional 16 hours. Compound A, compound B, compound C, compound G, or compound H was added to the cells (25 μM final concentration) and the cells were incubated for various times. Control cells were incubated with vehicle (DMSO) with no compound treatment. Harvested cells were assessed for cell viability (GUAVA), or added to RNA extraction buffer (RNeasy, Qiagen) and stored at −20° C. for subsequent RNA purification.
RNA was precipitated in 0.3 M sodium acetate (pH 5.2), 50 ng/ml glycogen, and 2.5 volumes of ethanol for one hour at −20° C. Samples were centrifuged and pellets were washed with cold 80% ethanol, dried, and resuspend in water. Double stranded cDNA was synthesized using a T7-(dT)24 first strand primer (Affymetrix, Inc., Santa Clara Calif.) and the SUPERSCRIPT CHOICE system (Invitrogen) according to the manufacturer's instructions. The final cDNA was extracted with an equal volume of 25:24:1 phenol:chloroform:isoamyl alcohol using a PHASE LOCK GEL insert (Brinkman, Inc., Westbury N.Y.). The aqueous phase was collected and cDNA was precipitated using 0.5 volumes of 7.5 M ammonium acetate and 2.5 volumes of ethanol. Alternatively, cDNA was purified using the GENECHIP sample cleanup module (Affymetrix) according to the manufacturer's instructions.
Biotin-labeled cRNA was synthesized from the cDNA in an in vitro […] (IVT) reaction using a BIOARRAY HighYield RNA transcript labeling kit (Enzo Diagnostics, Inc., Farmingdale N.Y.) according to the manufacturer's instructions. Final labeled product was purified and fragmented using the GENECHIP sample cleanup module (Affymetrix) according to the manufacturer's instructions.
Hybridization cocktail was prepared by bringing 5 μg probe to 100 μl in 1× hybridization buffer (100 mM MES, 1 M [Na^+], 20 mM EDTA, 0.01% Tween 20), 100 μg/ml herring sperm DNA, 500 μg/ml acetylated BSA, 0.03 nM contol oligo B2 (Affymetrix), and 1× GENECHIP eukaryotic hybridization control (Affymetrix). The cocktail was sequentially incubated at 99° C. for 5 minutes and 45° C. for 5 minutes, and then centrifuged for 5 minutes. The […] array (Affymetrix) was brought to room temperature and then prehybridized with 1× hybridization buffer at 45° C. for 10 minutes with rotation. The buffer was then replaced with 80 μl hybridization cocktail and the array was hybridized for 16 hours at 45° C. at 60 rpm with counter balance. Following hybridization, arrays were washed once with 6×SSPE, 0.1% Tween 20, and then washed and stained using R-phycoerythrin-conjugated streptavidin (Molecular Probes, Eugene Oreg.), goat anti-streptavidin antibody (Vector Laboratories, Burlingame Calif.), and a GENECHIP Fluidics Station 400 instrument (Affymetrix) according to the manufacturer's EukGE-WS2v4 protocol (Affymetrix). Arrays were analyzed using a GENEARRAY scanner (Affymetrix) and Microarray Suite software (Affymetrix).
RNA quality was monitored by capillary electrophoresis (Agilent Bioanalyzer). […] Array performance was analyzed with Affymetrix MicroArray Suite (MAS) software and individual probe sets were assigned “present”, “marginal, and “absent” calls according to software defaults. […]

[2] = tested on: adrenomedullin gene expression; assay: Adrenomedullin gene expression in H9c2 cardiomyocytes with or without KCN challenge; type: cell-based, rat; details: H9c2, 10 μM compound 24 hours
Method: Adrenomedullin gene expression was also examined in cardiomyocytes treated with compound and subsequently challenged with KCN, an inhibitor of oxidative glucose metabolism. H9c2 rat cardiomyocytes were cultured in 96-well tissue culture plates (approximately 20,000 cells per well) in DMEM containing 10% fetal bovine serum. Media was changed to DMEM containing 0.5% fetal bovine serum, and the cells were treated with 10 μM compound C or compound D for 24 hours. Media was then replaced with glucose-free DMEM (Gibco/Invitrogen Cat. # 11966-025) containing 2 mM KCN (Sigma-Aldrich Cat. No. 207810). Results of adrenomedullin gene expression, presented as fold-increase in gene expression above DMSO control, are shown below in Table 2.

HO-1 protein = HO-1 protein levels in H9c2 cardiomyocytes by ELISA; type: cell-based, rat; details: H9c2, 100 μM compound; control 2.86
Method: In another series of experiments, H9c2 rat cardiomyocytes were treated with either vehicle control or with various concentrations (1 μM, 3 μM, 10 μM, 30 μM, and 100 μM) of compound C or compound G. Cell lysates were harvested and HO-1 protein levels determined by ELISA according to the manufacturer's instructions (cat # EKS-810; Stressgen, Victoria, BC, Canada). Data shown below in Table 4 represents values obtain with 100 μM compound.

gene encoding HSP70-3 = assay: HSP70-3 mRNA levels in mouse tissues after oral dosing (microarray); type: in vivo
Method: Twelve Swiss Webster male mice (30-32 g) were obtained from Simonsen, Inc (Gilroy, Calif.) and treated by oral gavage two times per day for 2.5 days (5 doses) with a 4 ml/kg volume of either 0.5% carboxymethyl cellulose (CMC; Sigma-Aldrich, St. Louis Mo.) (0 mg/kg/day) or 2.5% compound H (25 mg/ml in 0.5% CMC) (200 mg/kg/day). Four hours after the final dose, the mice were then sacrificed and approximately 150 mg of liver and each kidney were isolated and stored in RNALATER solution (Ambion) at −20° C.
To determine gene induction patterns over time, twenty four Swiss Webster male mice (30-32 g) were obtained from Simonsen, Inc. and treated by oral gavage with a 4 ml/kg volume of either 0.5% carboxymethyl cellulose (CMC; Sigma-Aldrich, St. Louis Mo.) (0 mg/kg) or […] compound H (25 mg/ml in 0.5% CMC) (100 mg/kg). At 4, 8, 16, 24, 48, or 72 hours after the final dose, animals were anesthetized with isoflurane. The mice were then sacrificed and tissue samples of kidney, liver, brain, lung, and heart were isolated and stored in RNALATER solution (Ambion) at −80° C. RNA isolation and gene expression analysis were performed as described below.
RNA isolation was carried out using the following protocol. A section of each organ was diced, 875 μl of RLT buffer (RNEASY kit; Qiagen Inc., Valencia Calif.) was added, and the pieces were homogenized for about 20 seconds using a rotor-stator POLYTRON homogenizer (Kinematica, Inc., Cincinnati Ohio). […] The RNA was eluted into […] of water and quantitated with RIBOGREEN reagent (Molecular Probes, Eugene Oreg.). The absorbance at 260 and 280 nm was measured to determine RNA purity and concentration.
Alternatively, tissue samples were diced and homogenized in TRIZOL reagent (Invitrogen Life Technologies, Carlsbad Calif.) using a rotor-stator POLYTRON homogenizer (Kinematica). […] The absorbance at 260 and 280 nm was measured to determine RNA purity and concentration. […]

[3] = then glucose-free DMEM with 2 mM KCN
[4] = Animal Study III: mice, oral gavage, 100 mg/kg

Row | SMILES | ATP (relative light units) (H9c2 rat cardiomyocytes) | Adrenomedullin gene expression, fold-increase above non-treated control [1] [fold] | other results
1 | O=C(O)c1c[nH]c2c(ccc3cccnc32)c1=O [Compound A, 4-Oxo-1,4-dihydro-[1,10]phenanthroline-3-carboxylic acid] | 968.5 | 3.582 | 
2 | COc1ccc(CCN(CCC(=O)NO)S(=O)(=O)c2ccc(NC(=O)N(Cc3ccccc3)Cc3ccccc3)cc2)cc1 [Compound B, 3-{[4-(3,3-Dibenzyl-ureido)-benzenesulfonyl]-[2-(4-methoxy-phenyl)-ethyl]-amino}-N-hydroxy-propionamide] | 683.5 | 8.334 | 
3 | O=C(O)CNC(=O)c1ncc2cc(Sc3ccccc3)ccc2c1O [Compound C, [(4-Hydroxy-7-phenylsulfanyl-isoquinoline-3-carbonyl)-amino]-acetic acid] | 3710 | 3.896 | Adm gene expression, fold-increase above DMSO control ([2]; no KCN): 4.8 fold; Adm gene expression, fold-increase above DMSO control [2, 3]: 7.9 fold; HO-1 (ng/mg total cell protein) (HO-1 protein): 102.68 ng/mg total cell protein
4 | O=C(O)CNC(=O)c1ncc2ccc(Sc3ccccc3)cc2c1O [Compound D, [(4-Hydroxy-6-phenylsulfanyl-isoquinoline-3-carbonyl)-amino]-acetic acid] | 859.5 |  | Adm gene expression, fold-increase above DMSO control ([2]; no KCN): 2.2 fold; Adm gene expression, fold-increase above DMSO control [2, 3]: 4.2 fold
5 | O=C(O)CNC(=O)c1nc(Cl)c2cc(Oc3ccccc3)ccc2c1O [Compound E, [(1-Chloro-4-hydroxy-7-phenoxy-isoquinoline-3-carbonyl)-amino]-acetic acid] | 2043 |  | 
6 | O=C(O)CNC(=O)c1nc(Br)c2cc(Oc3ccccc3)ccc2c1O [Compound F, [(1-Bromo-4-hydroxy-7-phenoxy-isoquinoline-3-carbonyl)-amino]-acetic acid] | 1134 |  | 
7 | O=C(O)CNC(=O)c1nc(Cl)c2ccccc2c1O [Compound H, [(1-Chloro-4-hydroxy-isoquinoline-3-carbonyl)-amino]-acetic acid] | 947 | 1.298 | HSP70-3 mRNA Levels Liver (gene encoding HSP70-3; Animal Study I: mice, oral gavage two times per day for 2.5 days, 200 mg/kg/day, four hours after final dose): 2.77; HSP70-3 mRNA Levels Liver (gene encoding HSP70-3; [4]): 1.441; HSP70-3 mRNA Levels Lung (gene encoding HSP70-3; [4]): 3.0
